Source: the NIST ThermoML archive (doi:10.1021/je500320c)
± gives the expanded uncertainty stated by the source.

Assay: an = ratio of the nth substance listed
Conditions: 101 kPa, Liquid, a1 = 2

NC(N)=O [urea] + C[N+](C)(C)CCO.[Cl-]
mass density (298.15 K): 1197.9 ± 0.9 kg/m3
viscosity (298.15 K): 1571 ± 260 mPa·s
mass density (303.15 K): 1195.2 ± 0.9 kg/m3
viscosity (303.15 K): 953.7 ± 100 mPa·s
mass density (308.15 K): 1192.7 ± 0.8 kg/m3
viscosity (308.15 K): 608.4 ± 54 mPa·s
mass density (313.15 K): 1190.1 ± 0.8 kg/m3
viscosity (313.15 K): 403.2 ± 30 mPa·s
mass density (318.15 K): 1187.5 ± 0.8 kg/m3
viscosity (318.15 K): 277.2 ± 17 mPa·s
mass density (323.15 K): 1184.9 ± 0.8 kg/m3
viscosity (323.15 K): 195.9 ± 9.8 mPa·s
mass density (328.15 K): 1182.3 ± 0.8 kg/m3
viscosity (328.15 K): 143.6 ± 5.6 mPa·s
mass density (333.15 K): 1179.7 ± 0.8 kg/m3
viscosity (333.15 K): 107.7 ± 3.9 mPa·s
